Measured values from patent US9365562B2, “1,3 substituted azetidine PDE10 inhibitors” (Merck Sharp & Dohme Corp., priority 2011, dated 2016).

Biological target: human PDE10A2 (Homo sapiens (Human), UniProt Q9Y233)
Assay: PDE10 fluorescence polarization (IMAP FP) inhibition assay
Assay type: biochemical
Details: apparent inhibition constant, FAM-labeled cAMP substrate 50 nM, room temperature
Method: The activity of the compounds in accordance with the present invention as PDE10 inhibitors may be readily determined without undue experimentation using a fluorescence polarization (FP) methodology that is well known in the art (Huang, W., et al., J. Biomol Screen, 2002, 7: 215).
In a typical experiment the PDE10 inhibitory activity of the compounds of the present invention was determined in accordance with the following experimental method. PDE10A2 was amplified from human fetal brain cDNA (Clontech, Mountain View, Calif.) using a forward primer corresponding to nucleotides 56-77 of human PDE10A2 (Accession No. AF127480, Genbank Identifier 4894716), containing a Kozak consensus sequence, and a reverse primer corresponding to nucleotides 2406-2413 of human PDE10A2 (Accession No. AF127480, Genbank Identifier 4894716). Amplification with Easy-A polymerase (Stratagene, La Jolla, Calif.) was 95° C. for 2 minutes followed by thirty three cycles of 95° C. for 40 seconds, 55° C. for 30 seconds, and 72° C. for 2 minutes 48 seconds. Final extension was 72° C. for 7 minutes. The PCR product was TA cloned into pcDNA3.2-TOPO (Invitrogen, Carlsbad, Calif.) according to standard protocol. AD293 cells with 70-80% confluency were transiently transfected with human PDE10A2/pcDNA3.2-TOPO using Lipofectamine 2000 according to manufacturer specifications (Invitrogen, Carlsbad, Calif.). Cells were harvested 48 hours post-transfection and lysed by sonication (setting 3, 10×5 sec pulses) in a buffer containing 20 mM HEPES, 1 mM EDTA and protease inhibitor cocktail (Roche). Lysate was collected by centrifugation at 75,000×g for 20 minutes. Supernatant containing the cytoplasmic fraction was used for evaluation of PDE10A2 activity. The fluorescence polarization assay for cyclic nucleotide phosphodiesterases was performed using an IMAP® FP kit supplied by Molecular Devices, Sunnyvale, Calif. (product # R8139). IMAP® technology has been applied previously to phosphodiesterase assays (Huang, W., et al., J. Biomol Screen, 2002, 7: 215). Assays were performed at room temperature in 384-well microtiter plates with an incubation volume of 20.2 μL. Solutions of test compounds were prepared in DMSO and serially diluted with DMSO to yield 8 μL of each of 10 solutions differing by 3-fold in concentration, at 32 serial dilutions per plate. 100% inhibition is determined using a known PDE10 inhibitor, which can be any compound that is present at 5,000 times its Ki value in the assay described as follows, such as papaverine (see Siuciak, et al. Neuropharmacology (2006) 51:386-396; Becker, et al. Behav Brain Res (2008) 186(2):155-60; Threlfell, et al., J Pharmacol Exp Ther (2009) 328(3):785-795), 2-{4-[pyridin-4-yl-1-(2,2,2-trifluoroethyl)-1H-pyrazol-3-yl]phenoxymethyl}quinoline succinic acid or 2-[4-(1-methyl-4-pyridin-4-yl-1H-pyrazol-3-yl)-phenoxymethyl]quinoline succinic acid (see Schmidt, et al. J Pharmacol Exp Ther (2008) 325:681-690; Threlfell, et al., J Pharmacol Exp Ther (2009) 328(3): 785-795). 0% of inhibition is determined by using DMSO (1% final concentrations). A Labcyte Echo 555 (Labcyte, Sunnyvale, Calif.) is used to dispense […] from each well of the titration plate to the 384 well assay plate. A solution of enzyme (1/7000 dilution from aliquots; sufficient to produce 20% substrate conversion) and a separate solution of FAM-labeled cAMP PDE from Molecular Devices (product # R7506), at a final concentration of 50 nM are made in the assay buffer (10 mM Tris HCl, pH 7.2, 10 mM MgCl2, 0.05% NaN3 0.01% Tween-20, and 1 mM DTT). The enzyme is added to the assay plates by the addition of 10 μL of enzyme solution to each well, shaken to mix and incubated at room temperature for 60 minutes. The substrate is then added to the assay plates by the addition of 10 μL of substrate solution to each well, shaken to mix, and incubated at room temperature for 60 minutes. […]

Chain of human PDE10A2 (Q9Y233 267-1055): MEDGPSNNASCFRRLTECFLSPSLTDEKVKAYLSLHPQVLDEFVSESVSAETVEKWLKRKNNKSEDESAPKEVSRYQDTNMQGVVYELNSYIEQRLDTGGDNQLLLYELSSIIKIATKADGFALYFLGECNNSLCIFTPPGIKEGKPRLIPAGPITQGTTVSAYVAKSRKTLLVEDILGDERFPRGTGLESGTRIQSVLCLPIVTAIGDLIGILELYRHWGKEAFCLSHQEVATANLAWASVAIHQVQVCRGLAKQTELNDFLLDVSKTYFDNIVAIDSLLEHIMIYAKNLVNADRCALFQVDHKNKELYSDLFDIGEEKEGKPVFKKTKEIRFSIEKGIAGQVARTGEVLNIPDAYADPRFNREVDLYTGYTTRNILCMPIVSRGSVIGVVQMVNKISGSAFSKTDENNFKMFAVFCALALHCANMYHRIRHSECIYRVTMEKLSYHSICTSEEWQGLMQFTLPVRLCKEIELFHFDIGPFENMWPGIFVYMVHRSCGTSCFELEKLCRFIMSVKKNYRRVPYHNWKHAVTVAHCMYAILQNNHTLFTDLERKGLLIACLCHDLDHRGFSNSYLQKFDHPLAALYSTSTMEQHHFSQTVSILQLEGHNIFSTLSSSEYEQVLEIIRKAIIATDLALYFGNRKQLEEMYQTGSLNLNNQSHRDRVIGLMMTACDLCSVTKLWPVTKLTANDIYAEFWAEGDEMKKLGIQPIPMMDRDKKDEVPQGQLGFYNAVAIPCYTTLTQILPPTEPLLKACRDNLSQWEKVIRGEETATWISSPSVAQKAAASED

Row | Compound | Ki [nM]
1 | Cc1nc(C)n(-c2cc(N3CC(c4nc5ccccc5n4C)C3)nc(C#N)n2)n1 [Example 79, 4-(3,5-dimethyl-1H-1,2,4-triazol-1-yl)-6-[3-(1-methyl-1H-benzimidazol-2-yl)azetidin-1-yl]pyrimidine-2-carbonitrile] | 0.28
2 | Cc1nc(N2CC(c3nc4cccc(F)c4n3C)C2)cc(-n2nc(C)nc2C)n1 [Example 123, 2-(1-(6-(3,5-dimethyl-1H-1,2,4-triazol-1-yl)-2-methylpyrimidin-4-yl)azetidin-3-yl)-7-fluoro-1-methyl-1H-benzo[d]imidazole] | 7.1
3 | Cc1nc(-c2cccnc2C)cc(N2CC(c3nc4ccccc4n3C)C2)n1 [Example 80, 1-Methyl-2-(1-(2-methyl-6-(2-methylpyridin-3-yl)pyrimidin-4-yl)azetidin-3-yl)-1H-benzo[d]imidazole] | > 100
4 | Cc1nc(N2CC(c3nc4ccccc4n3C)C2)cc(-n2cc(C#N)cn2)n1 [Example 17, 1-(2-methyl-6-(3-(1-methyl-1H-benzo[d]imidazol-2-yl)azetidin-1-yl)pyrimidin-4-yl)-1H-pyrazole-4-carbonitrile] | 4.2
5 | Cc1nc(N2CC(c3nc4ccccc4n3C)C2)cc(-n2ccc(C(C)C)n2)n1 [Example 14, 2-(1-(6-(3-isopropyl-1H-pyrazol-1-yl)-2-methylpyrimidin-4-yl)azetidin-3-yl)-1-methyl-1H-benzo[d]imidazole] | 0.65
6 | Cc1nc(N2CC(c3nc4ccccc4n3C)C2)cc(-n2nc(C)nc2Cc2cc(F)ccc2F)n1 [Example 57, 2-(1-(6-(5-(2,5-difluorobenzyl)-3-methyl-1H-1,2,4-triazol-1-yl)-2-methylpyrimidin-4-yl)azetidin-3-yl)-1-methyl-1H-benzo[d]imidazole] | 0.065
7 | COCc1nc(C)nn1-c1cc(N2CC(c3nc4ccccc4n3C)C2)nc(C)n1 [Example 59, 2-(1-{6-[5-(methoxymethyl)-3-methyl-1H-1,2,4-triazol-1-yl]-2-methylpyrimidin-4-yl}azetidin-3-yl)-1-methyl-1H-benzimidazole] | 1.5
8 | Cc1nc(N2CC(c3nc4ccccc4n3C)C2)cc(-n2nc(C)nc2C2CCCCC2)n1 [Example 45, 2-(1-(6-(5-cyclohexyl-3-methyl-1H-1,2,4-triazol-1-yl)-2-methylpyrimidin-4-yl)azetidin-3-yl)-1-methyl-1H-benzo[d]imidazole] | 2
9 | Cc1nc(N2CC(c3nc4cccc(C)c4[nH]3)C2)cc(-n2nc(C)nc2C)n1 [Example 110, 2-(1-(6-(3,5-dimethyl-1H-1,2,4-triazol-1-yl)-2-methylpyrimidin-4-yl)azetidin-3-yl)-7-methyl-1H-benzo[d]imidazole] | 17
10 | Cc1nc(-c2ccccc2O)cc(N2CC(c3nc4ccccc4n3C)C2)n1 [Example 92, 2-(2-methyl-6-(3-(1-methyl-1H-benzo[d]imidazol-2-yl)azetidin-1-yl)pyrimidin-4-yl)phenol] | 30
11 | Cc1nc(N2CC(c3nc4c(F)cccc4n3C)C2)cc(-n2nc(C)nc2C)n1 [Example 122, 2-(1-(6-(3,5-dimethyl-1H-1,2,4-triazol-1-yl)-2-methylpyrimidin-4-yl)azetidin-3-yl)-4-fluoro-1-methyl-1H-benzo[d]imidazole] | 17
12 | COc1nc(N2CC(c3nc4ccccc4n3C)C2)cc(-n2nc(C)nc2C)n1 [Example 62, 2-{1-[6-(3,5-dimethyl-1H-1,2,4-triazol-1-yl)-2-methoxypyrimidin-4-yl]azetidin-3-yl}-1-methyl-1H-benzimidazole] | 0.76
13 | CCc1cnn(-c2cc(N3CC(c4nc5ccccc5n4C)C3)nc(C)n2)c1 [Example 15, 2-(1-(6-(4-ethyl-1H-pyrazol-1-yl)-2-methylpyrimidin-4-yl)azetidin-3-yl)-1-methyl-1H-benzo[d]imidazole] | 3.4
14 | Cc1nc(-c2cccc(C(F)(F)F)n2)cc(N2CC(c3nc4ccccc4n3C)C2)n1 [Example 87, 1-methyl-2-(1-(2-methyl-6-(6-(trifluoromethyl)pyridin-2-yl)pyrimidin-4-yl)azetidin-3-yl)-1H-benzo[d]imidazole] | 1.3
15 | Cc1nc(-c2cccnc2)cc(N2CC(c3nc4ccccc4n3C)C2)n1 [Example 81, 1-methyl-2-(1-(2-methyl-6-(pyridin-3-yl)pyrimidin-4-yl)azetidin-3-yl)-1H-benzo[d]imidazole] | 76
16 | Cc1nc(C)n(-c2cc(N3CC(c4nc5ccccc5n4C)C3)nc(C(F)(F)F)n2)n1 [Example 60, 2-{1-[6-(3,5-dimethyl-1H-1,2,4-triazol-1-yl)-2-(trifluoromethyl)pyrimidin-4-yl]azetidin-3-yl}-1-methyl-1H-benzimidazole] | 1.1

Further lines, results first:

Row | Ki [nM] | Compound
17 | 0.46 | Cc1nc(C)n(-c2cc(N3CC(c4nc5ccccc5n4C)C3)nc(C3CC3)n2)n1 [Example 61, 2-{1-[2-cyclopropyl-6-(3,5-dimethyl-1H-1,2,4-triazol-1-yl)pyrimidin-4-yl]azetidin-3-yl}-1-methyl-1H-benzimidazole]
18 | 4.5 | Cc1nc(N2CC(c3nc4ccccc4n3C)C2)cc(-n2nc(C)nc2C2CC2)n1 [Example 36, 2-(1-(6-(5-cyclopropyl-3-methyl-1H-1,2,4-triazol-1-yl)-2-methylpyrimidin-4-yl)azetidin-3-yl)-1-methyl-1H-benzo[d]imidazole]
19 | 3.1 | Cc1nc(N2CC(c3nc4ccccc4n3C)C2)cc(-n2nc(C)nc2C(C)C)n1 [Example 39, 2-(1-(6-(5-isopropyl-3-methyl-1H-1,2,4-triazol-1-yl)-2-methylpyrimidin-4-yl)azetidin-3-yl)-1-methyl-1H-benzo[d]imidazole]
20 | 8.3 | Cc1nc(N2CC(c3nc4ccccc4n3C)C2)cc(-n2cc(CO)cn2)n1 [Example 19, (1-(2-methyl-6-(3-(1-methyl-1H-benzo[d]imidazol-2-yl)azetidin-1-yl)pyrimidin 4-yl)-1H-pyrazol-4-yl)methanol]
21 | 31 | CC(=O)c1ccnc(-c2cc(N3CC(c4nc5ccccc5n4C)C3)nc(C)n2)c1 [Example 101, 1-(2-(2-methyl-6-(3-(1-methyl-1H-benzo[d]imidazol-2-yl)azetidin-1-yl)pyrimidin-4-yl)pyridin-4-yl)ethanone]
22 | 20 | Cc1nc(-c2ncco2)cc(N2CC(c3nc4ccccc4n3C)C2)n1 [Example 104, 2-(2-methyl-6-(3-(1-methyl-1H-benzo[d]imidazol-2-yl)azetidin-1-yl)pyrimidin-4-yl)oxazole]
23 | 1.8 | COC(=O)c1nc(N2CC(c3nc4ccccc4n3C)C2)cc(-n2nc(C)nc2C)n1 [Example 24, methyl 4-(3,5-dimethyl-1H-1,2,4-triazol-1-yl)-6-(3-(1-methyl-1H-benzo[d]imidazol-2-yl)azetidin-1-yl)pyrimidine-2-carboxylate]
24 | 0.7 | Cc1noc(COc2nc(N3CC(c4nc5ccccc5n4C)C3)cc(-n3nc(C)nc3C)n2)n1 [Example 75, 5-(((4-(3,5-dimethyl-1H-1,2,4-triazol-1-yl)-6-(3-(1-methyl-1H-benzo[d]imidazol-2-yl)azetidin-1-yl)pyrimidin-2-yl)oxy)methyl)-3-methyl-1,2,4-oxadiazole]
25 | 8.5 | CCOCCn1c(C2CN(c3cc(-n4nc(C)nc4C)nc(C)n3)C2)nc2ccccc21 [Example 120, 2-(1-(6-(3,5-dimethyl-1H-1,2,4-triazol-1-yl)-2-methylpyrimidin-4-yl)azetidin-3-yl)-1-(2-ethoxyethyl)-1H-benzo[d]imidazole]
